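Protocol summary: plate cells (96-well), add compound at 5 concentrations, incubate 48 h, interpolate endpoints linearly. Here, GI50 denotes the concentration required for 50% inhibition of growth.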 Calls of active or inactive are those of the source. No stated cut-off is given here; in the data, active = GI50 up to about 1.1 µM and inactive = higher.
Experiments:
Experiment in all cases: inhibition of tumour cell growth, NCI panel, 48 h
CCRF-CEM = tested on: CCRF-CEM
UO-31 = tested on: UO-31
SF-268 = tested on: SF-268
NCI-H23 = tested on: NCI-H23
OVCAR-4 = tested on: OVCAR-4
LOX IMVI = tested on: LOX IMVI
KM12 = tested on: KM12
HT-29 = tested on: HT-29
HOP-62 = tested on: HOP-62
RXF 393 = tested on: RXF 393
HOP-92 = tested on: HOP-92
CAKI-1 = tested on: CAKI-1
UACC-62 = tested on: UACC-62
ACHN = tested on: ACHN
TK-10 = tested on: TK-10
NCI-H460 = tested on: NCI-H460
SR = tested on: SR
MOLT-4 = tested on: MOLT-4
PC-3 = tested on: PC-3

SMILES | GI50 (CCRF-CEM) | GI50 (UO-31) | GI50 (SF-268) | GI50 (NCI-H23) | GI50 (OVCAR-4) | GI50 (LOX IMVI) | GI50 (KM12) | GI50 (HT-29) | GI50 (HOP-62) | GI50 (RXF 393) | GI50 (HOP-92) | GI50 (CAKI-1) | GI50 (UACC-62) | GI50 (ACHN) | GI50 (TK-10) | GI50 (NCI-H460) | GI50 (SR) | GI50 (MOLT-4) | GI50 (PC-3)
Cc1cc(Cl)ccc1N1C(=O)C(=O)C(c2nc3ccccc3s2)/C(=N\NC(=O)c2ccccc2O)C1=O (stereo unspecified) | > 100 µM (inactive) | > 100 µM (inactive) | > 100 µM (inactive) | > 100 µM (inactive) | > 100 µM (inactive) | > 100 µM (inactive) | > 100 µM (inactive) | > 100 µM (inactive) | > 100 µM (inactive) | > 100 µM (inactive) | 46.7 µM (inactive) | > 100 µM (inactive) | > 100 µM (inactive) | > 100 µM (inactive) | > 100 µM (inactive) | > 100 µM (inactive) | > 100 µM (inactive) | – | –
N#CN=C(NCc1ccccc1)NCc1ccccc1 | > 100 µM (inactive) | > 100 µM (inactive) | 18.2 µM (inactive) | > 100 µM (inactive) | > 100 µM (inactive) | > 100 µM (inactive) | > 100 µM (inactive) | > 100 µM (inactive) | > 100 µM (inactive) | > 48.6 µM (inactive) | > 100 µM (inactive) | > 100 µM (inactive) | > 100 µM (inactive) | > 64.9 µM (inactive) | > 100 µM (inactive) | > 64.7 µM (inactive) | 27.9 µM (inactive) | > 100 µM (inactive) | –
O=C(CCN1CCCC1)CC(c1ccccc1)c1c(O)c2ccccc2oc1=O (stereo unspecified) | > 100 µM (inactive) | > 100 µM (inactive) | > 100 µM (inactive) | > 100 µM (inactive) | > 100 µM (inactive) | > 100 µM (inactive) | > 100 µM (inactive) | > 100 µM (inactive) | > 100 µM (inactive) | > 100 µM (inactive) | 20.1 µM (inactive) | – | > 100 µM (inactive) | > 100 µM (inactive) | > 100 µM (inactive) | > 100 µM (inactive) | > 100 µM (inactive) | > 100 µM (inactive) | –
O=C(O)OC12CCCCCC1C(=O)C1CCCCC12 (stereo unspecified) | > 100 µM (inactive) | > 100 µM (inactive) | 61.5 µM (inactive) | > 100 µM (inactive) | > 100 µM (inactive) | > 100 µM (inactive) | > 100 µM (inactive) | > 100 µM (inactive) | > 100 µM (inactive) | 39.3 µM (inactive) | – | – | 71.3 µM (inactive) | > 100 µM (inactive) | > 100 µM (inactive) | 77.4 µM (inactive) | 47 µM (inactive) | 46 µM (inactive) | –
CC1(C)COC(c2cccc(C3=NC(C)(C)CO3)c2)=N1 | – | > 100 µM (inactive) | > 100 µM (inactive) | > 100 µM (inactive) | 83.9 µM (inactive) | > 100 µM (inactive) | > 100 µM (inactive) | > 100 µM (inactive) | > 100 µM (inactive) | – | > 100 µM (inactive) | > 100 µM (inactive) | 64.3 µM (inactive) | > 100 µM (inactive) | > 100 µM (inactive) | > 100 µM (inactive) | > 100 µM (inactive) | > 100 µM (inactive) | > 100 µM (inactive)
CCCCCCCCCCC(=O)CC(=O)c1c(O)cccc1O | – | 29 µM (inactive) | 41.1 µM (inactive) | 26.9 µM (inactive) | 43.1 µM (inactive) | 18.7 µM (inactive) | 33 µM (inactive) | 30.7 µM (inactive) | 24.1 µM (inactive) | 26.3 µM (inactive) | 27.1 µM (inactive) | 41 µM (inactive) | 41.9 µM (inactive) | 30 µM (inactive) | 46.2 µM (inactive) | 34.7 µM (inactive) | 33.6 µM (inactive) | 20.4 µM (inactive) | –
CN(C)CC(C)(C)C(=O)/C=C/c1ccc(/C=C/C(=O)C(C)(C)CN(C)C)cc1 | 1.05 µM (active) | 1.99 µM (inactive) | 1.35 µM (inactive) | 1.91 µM (inactive) | 1.02 µM (active) | 0.456 µM (active) | 1.85 µM (inactive) | 0.51 µM (active) | 2.14 µM (inactive) | 1.17 µM (inactive) | 0.682 µM (active) | 1.42 µM (inactive) | 1.74 µM (inactive) | 1.47 µM (inactive) | 1.64 µM (inactive) | 3.78 µM (inactive) | 2.28 µM (inactive) | 0.519 µM (active) | –
CCCCNC(=S)Nc1nc(C(=O)NNC(=S)Nc2ccccc2)cs1 | > 100 µM (inactive) | > 100 µM (inactive) | > 100 µM (inactive) | > 100 µM (inactive) | > 100 µM (inactive) | – | > 100 µM (inactive) | > 100 µM (inactive) | > 100 µM (inactive) | – | 21.4 µM (inactive) | > 100 µM (inactive) | > 100 µM (inactive) | > 100 µM (inactive) | > 100 µM (inactive) | > 100 µM (inactive) | – | > 100 µM (inactive) | > 100 µM (inactive)

Reference: ChEMBL document CHEMBL1201862, “PubChem BioAssay data set” (2004)
